| melting point [°C] | Structure (SMILES) |
| --- | --- |
| 215 to 216 | CC(=O)N1CC(=O)NC(Cc2ccc(OCc3ccccc3)cn2)C1=O (centres unmarked) [Compound 12, 1-acetyl-3-[(5-benzyloxypyridin-2-yl)methyl]piperazine-2,5-dione] |
| 256 to 257 | O=c1[nH]c(=Cc2ccco2)c(=O)[nH]c1=Cc1ccc(OCc2ccccc2)cn1 [Compound 7, 3-[(5-benzyloxypyridin-2-yl)methylidene]-6-[(furan-2-yl)methylidene]piperazine-2,5-dione] |
| 248 to 250 | O=c1[nH]c(=Cc2ccc(OCc3ccccc3)cn2)c(=O)[nH]c1=Cc1ccccn1 [Compound 9, 3-[(5-benzyloxypyridin-2-yl)methylidene]-6-[(2-pyridinyl)methylidene]piperazine-2,5-dione] |
| 228 to 231 | O=C1NC(Cc2ccc(OCc3ccccc3)cn2)C(=O)NC1Cc1ccc(OCc2ccccc2)cn1 (centres unmarked) [Compound 13, 3,6-di[(5-benzyloxypyridin-2-yl)methyl]piperazine-2,5-dione] |
| 283 to 328 | O=c1[nH]c(=Cc2ccc(OCc3ccccc3)cn2)c(=O)[nH]c1=Cc1ccc(OCc2ccccc2)cn1 [Compound 10, 3,6-di[(5-phenylmethoxypyridin-2-yl)methylidene]piperazine-2,5-dione] |
